Test results from ChEMBL document CHEMBL5360558, “Molecular design, synthesis and anticancer activity of new thiopyrano[2,3-d]thiazoles based on 5-hydroxy-1,4-naphthoquinone (juglone)” (Eur J Med Chem, 2023).
Calls of active or inactive are those of the source. The calls are words filed in the database; no cut-off is given here.

What was measured:
COLO 205 [1] = experiment: Growth inhibition against human COLO 205 cells assessed as lethal concentration incubated for 48 hrs by sulforhodamine B spectrophotometric assay; assay type: functional; conditions: read-out: LC50 (the source's name)
M14 = experiment: Anticancer activity against human M14 cells assessed as cell growth at 10 uM incubated for 48 hrs by sulforhodamine B assay; assay type: functional; conditions: read-out: Activity
ACHN [2] = experiment: Growth inhibition against human ACHN cells assessed as total growth inhibitory concentration incubated for 48 hrs by sulforhodamine B spectrophotometric assay; assay type: functional
[3] = Acute toxicity in C57BL/6 mouse assessed as decrease in body mass at 20 mg/kg,ip administration observed after 22 days; assay type: organism-based; conditions: in vivo, 528 h, time 22 day
CCRF-CEM [4] = experiment: Induction of cell cycle arrest in human CCRF-CEM cells assessed as accumulation of cells at G0/G1 phase at 20.7 uM incubated for 24 hrs by propidium iodide staining based flow cytometry analysis (reference value: 38.68 +/- 0.75%); assay type: functional
A549 = experiment: Growth inhibition against human A549 cells assessed as lethal concentration incubated for 48 hrs by sulforhodamine B spectrophotometric assay; assay type: functional; conditions: read-out: LC50 (the source's name)
MDA-MB-231 [5] = experiment: Induction of apoptosis in human MDA-MB-231 cells assessed as increase in caspase 3/7 activity at 5 uM incubated for 24 hrs by flow cytometry analysis; assay type: functional
MDA-MB-468 = experiment: Growth inhibition against human MDA-MB-468 cells assessed as lethal concentration incubated for 48 hrs by sulforhodamine B spectrophotometric assay; assay type: functional; conditions: read-out: LC50 (the source's name)
NCI-H522 [6] = experiment: Growth inhibition of human NCI-H522 cells incubated for 48 hrs by sulforhodamine B spectrophotometric assay; assay type: functional
MDA-MB-231 [7] = experiment: Induction of apoptosis in human MDA-MB-231 cells assessed as increase in caspase-9 level at 5 uM incubated for 24 hrs by flow cytometry analysis; assay type: functional
MCF7 [8] = experiment: Growth inhibition of human MCF7 cells incubated for 48 hrs by sulforhodamine B spectrophotometric assay; assay type: functional
MCF7 [9] = experiment: Growth inhibition against human MCF7 cells assessed as lethal concentration incubated for 48 hrs by sulforhodamine B spectrophotometric assay; assay type: functional; conditions: read-out: LC50 (the source's name)
CCRF-CEM [10] = experiment: Induction of cell cycle arrest in human CCRF-CEM cells assessed as accumulation of cells at S phase at 4.14 uM incubated for 24 hrs by propidium iodide staining based flow cytometry analysis (reference value: 41.09 +/- 0.5%); assay type: functional
HCT-15 = experiment: Growth inhibition against human HCT-15 cells assessed as total growth inhibitory concentration incubated for 48 hrs by sulforhodamine B spectrophotometric assay; assay type: functional
Salmon testes DNA = experiment: Displacement of methyl green from salmon sperm DNA assessed as DNA intercalation at 10 uM incubated for 24 hrs by fluorescence plate reader method relative to control; assay type: nucleic-acid assay; conditions: Salmo salar
KB 3-1 = experiment: Induction of apoptosis in human KB 3-1 cells assessed as increase in calnexin protein expression at 0.5 to 5 uM incubated for 3 hrs by Western blotting assay; assay type: functional, cell-based; conditions: dose 0.5-5 µM
UACC-257 = experiment: Growth inhibition of human UACC-257 cells incubated for 48 hrs by sulforhodamine B spectrophotometric assay; assay type: functional
SF-268 [11] = experiment: Growth inhibition against human SF-268 cells assessed as total growth inhibitory concentration incubated for 48 hrs by sulforhodamine B spectrophotometric assay; assay type: functional
[12] = Cytotoxicity against human HaCaT cells assessed as cell growth inhibition incubated for 72 hrs by MTT assay; assay type: toxicity, cell-based; conditions: HaCaT cells
COLO 205 [13] = experiment: Growth inhibition of human COLO 205 cells incubated for 48 hrs by sulforhodamine B spectrophotometric assay; assay type: functional
NCI-H522 [14] = experiment: Growth inhibition against human NCI-H522 cells assessed as total growth inhibitory concentration incubated for 48 hrs by sulforhodamine B spectrophotometric assay; assay type: functional
SF-539 = experiment: Growth inhibition against human SF-539 cells assessed as total growth inhibitory concentration incubated for 48 hrs by sulforhodamine B spectrophotometric assay; assay type: functional
ACHN [15] = experiment: Growth inhibition against human ACHN cells assessed as lethal concentration incubated for 48 hrs by sulforhodamine B spectrophotometric assay; assay type: functional; conditions: read-out: LC50 (the source's name)
SF-268 [16] = experiment: Growth inhibition against human SF-268 cells assessed as lethal concentration incubated for 48 hrs by sulforhodamine B spectrophotometric assay; assay type: functional; conditions: read-out: LC50 (the source's name)
T47D = experiment: Growth inhibition against human T47D cells assessed as lethal concentration incubated for 48 hrs by sulforhodamine B spectrophotometric assay; assay type: functional; conditions: read-out: LC50 (the source's name)

In the case of `O=C1C2=C(C(=O)c3c(O)cccc31)C(c1ccco1)c1sc(=O)[nH]c1S2` (stereo not given), the CC50 (COLO 205 [1]) is reported as 6.93 µM, the growth at 10 µM (M14) is reported as -97.6% and the TGI (ACHN [2]) is reported as 16.1 µM. For the same molecule, the Activity [3] was “Toxic”, the Activity (CCRF-CEM [4]) was 35.58% and the CC50 (A549) was 7.38 µM. The Activity (MDA-MB-231 [5]) was 10.6%, the CC50 (MDA-MB-468) was greater than 100 µM and the GI50 (NCI-H522 [6]) was 2310 nM. It also gave an Activity (MDA-MB-231 [7]) of 15%, a GI50 (MCF7 [8]) of 1390 nM and a CC50 (MCF7 [9]) of 8.04 µM. For the same molecule, the Activity (CCRF-CEM [10]) was 41.83%, the TGI (HCT-15) was 3.88 µM and the Activity (Salmon testes DNA) was 44.3%. For the same molecule, the Activity (KB 3-1) was “inactive”, the GI50 (UACC-257) was 1570 nM and the TGI (SF-268 [11]) was 19.2 µM. It also gave an IC50 at 72 h [12] of 37.2 µM, a GI50 (COLO 205 [13]) of 1890 nM and a TGI (NCI-H522 [14]) of 6.99 µM. It also gave a TGI (SF-539) of 3.69 µM, a CC50 (ACHN [15]) of 40.1 µM and a CC50 (SF-268 [16]) greater than 100 µM. The CC50 (T47D) was greater than 100 µM.
